Results taken from patent publication US20200078404A1, “COMBINATION OF A CELL THERAPY AND AN IMMUNOMODULATORY COMPOUND” (Juno Therapeutics, Inc., priority 2017, published 2020).

Key:
anti-CD19 CAR+ T cells [1] = assay: Serial restimulation of anti-CD19 CAR+ T cells with K562-CD19 cells: expansion; type: cell-based, human; conditions: 1 μM lenalidomide, 4 rounds of stimulation, 12 days, two donors
Description: The ability of anti-CD19 CAR+ T cells to expand ex vivo following repeated stimulations was assessed using methods substantially as described in Example 2. […] For each donor, cells were harvested every 3-5 days from each experimental condition in the wells and counted, and restimulated with new target cells using the same culture conditions after resetting cell number to initial seeding density for each round. A total of 4 rounds of stimulation during a 12 day culture period were carried out. For each round of stimulation, the total number of cells was determined, and the results were depicted as the fold-change of cell number after stimulation (FIG. 17A) or number of doublings compared to initial number (FIG. 17B).

K562-CD19 cells = conditions: 1-5000 nM lenalidomide, E:T 2.5:1, about 120 hours
[2] = tested on: anti-CD19 CAR-expressing T cells; assay: Surface markers after anti-idiotypic antibody stimulation; type: cell-based, human
Excerpt: CAR-expressing T cells were stained for CD3, CD4, CD8 and the surrogate marker for CAR expression, and also for the following markers: CD25, PD-1, and CD69.

OPM-2 target cells = assay: Cytolytic activity of anti-BCMA CAR T cells co-cultured with OPM-2 target cells with or without lenalidomide; type: cell-based, human
Description: […]. The OPM-2 cells were labeled with NucLight Red (NLR) to permit tracking of target cells by microscopy substantially as described above. […] […].
[…]. Cytolytic activity was measured by loss of red fluorescent cells. […].

[3] = tested on: anti-BCMA CAR T cells with RPMI-8226; assay: Cytokine production of anti-BCMA CAR T cells co-cultured with RPMI-8226 with or without lenalidomide; type: cell-based, human
Excerpt: Culture of T cells not expressing the anti-BCMA CAR (mock) was used as a control.

anti-BCMA CAR-T cells = assay: Prestimulation of anti-BCMA CAR-T cells on BCMA beads for 7 days: phenotype, cytolytic activity and cytokines with RPMI-8226; type: cell-based, human
Description: Expression of CD25, PD-1, Tim3 and Lag3 on CAR T cells (using an antibody for surrogate CAR marker) cultured under the different conditions then was assessed by flow cytometry.
Percentage killing was normalized to anti-BCMA CAR T cells prestimulated on beads in the presence of vehicle. Cytokine production was assessed by ELISA from supernatant following culture with target cells for 24 hours. Experiments were performed twice in 3 donors. […] P values were obtained by likelihood ratio tests comparing the full model with the effect of interest against the model without the effect of interest.

OPM-2-luciferase tumor = assay: OPM-2 orthotopic xenograft mouse model, Study 2 (concurrent or delayed lenalidomide); type: in vivo
Description: In a further study, NOD/Scid/gc^−/− (NSG) mice were injected (i.v.) with OPM-2-luciferase cells as described in Study 1 above and allowed to engraft for 14 days prior to CAR-T (or mock) cell; infusion (i.v.).
At 14 days after tumor cell injection (day 0), a subtherapeutic dose of CAR+ T cells (1×10^6 CAR-T cells (generated from two different donors)) or mock control cells was injected intravenously. Data are presented as mean±SEM. For in vivo survival, a Gehan-Breslow-Wilcoxon test was used to compare groups.
FIG. 10E depicts the results of tumor burden assessment through day 60, as analyzed by the bioluminescence […]. […] P values were obtained by likelihood ratio tests comparing the full model with the effect of interest against the model without the effect of interest.
Blood from the treated mice was collected for CAR-T pharmacokinetic analysis, and cells were stained with antibodies to exclude mouse-specific cells (H2-kd, TER119, and muCD45) and analyzed by flow cytometry. Cells were gated on CD45+CD3+CAR+ and the cells per microliter of blood was determined. For pharmacokinetic measurements, each time point was analyzed by one-way ANOVA and Tukey post-hoc test. FIGS. 10G and 10H show the flow cytometric analysis of mock control cells and CAR-T cells in the blood of the mice at days 8, 14, 22, and 28 following injection of the CAR-T cells from two donors.

anti-CD19 CAR+ T cells [4] = assay: CD25 and PD-1 surface expression of anti-CD19 CAR+ T cells incubated with K562-CD19 cells; type: cell-based, human
Description: After 120 hours of culture, cells were isolated and assessed by flow cytometry for surface expression of CD25 or PD-1 in CD4+ or CD8+ T cell subsets.

RPMI-8226 target cells = assay: Cytolytic activity against RPMI-8226 after seven days incubation with BCMA-conjugated beads; type: cell-based, human
Description: Cytolytic activity of CAR+ T cells after incubation with BCMA-conjugated beads was assessed by incubation with the BCMA-expressing target cell line RPMI-8226, which is a BCMA+ multiple myeloma cell line. […] The number of viable cells was normalized to cells at day 0 prior to incubation with the RPMI-8226 target cells.

anti-BCMA CAR T cells = assay: Cytokine production of anti-BCMA CAR T cells on low, medium, high BCMA bead stimulation; type: cell-based, human
Description: In another study, recombinant human BCMA-conjugated beads were used to stimulate CAR T cells at various concentrations to titrate the magnitude of stimulation, either low (5 μg/mL), medium (50 μg/mL), and high (200 μg/mL) stimulation.

[5] = 1 μM lenalidomide during the prestimulation period
[6] = 1 μM lenalidomide, 7 days on BCMA beads
[7] = medium stimulation (50 μg BCMA beads), 24 hours, 1 μM lenalidomide

**Q.** How did the “cell expansion of anti-CD19 CAR+ T cells” value (anti-CD19 CAR+ T cells [1]) turn out when `Nc1cccc2c1CN(C1CCC(=O)NC1=O)C2=O` (stereo not shown) [lenalidomide, 3-(4-amino-1-oxo-1,3-dihydro-2H-isoindol-2-yl)piperidine-2,6-dione] was run?
**A.** no change or only a minor effect in cell expansion

**Q.** And the CAR-mediated cytolytic activity (K562-CD19 cells)?
**A.** reduced CAR-mediated cytolytic activity

**Q.** What about the “surface markers CD25 and CD69” value ([2]; CD4+ and CD8+ CAR-expressing T cells, day 4, some donors) of the same compound?
**A.** increase in surface markers CD25 and CD69

**Q.** And the “expression of PD-1” value ([2]; day 4, unchanged or decreased in the other donors)?
**A.** increased in the presence of Compound 1 or lenalidomide in cells generated from at least one donor

**Q.** And the “cytolytic activity of anti-BCMA CAR+ T cells” value (OPM-2 target cells; 0.01-10 μM lenalidomide, E:T 1:1, 7 days, four donors)?
**A.** enhance cytolytic activity of the anti-BCMA CAR+ T cells against OPM-2 target cells, in a dose-dependent manner

**Q.** And the “antigen-specific anti-BCMA CAR-T cytolytic activity” value (OPM-2 target cells; healthy donor and multiple myeloma patient, E:T 0.3:1, 6 to 7 days)?
**A.** increased by lenalidomide in a concentration-dependent manner

**Q.** And the “anti-BCMA CAR T cytolytic activity” value (OPM-2 target cells; increased concentrations of lenalidomide, all donors)?
**A.** Increased anti-BCMA CAR T cytolytic activity against OPM-2 target cells

**Q.** And the “CAR-dependent cytokine production and/or accumulation (IL-2, IFNγ, TNF-α)” value ([3]; 10 μM lenalidomide, E:T 0.3:1, 48 hours)?
**A.** increase in CAR-dependent cytokine production and/or accumulation

**Q.** And the “cytokine production by CAR-expressing T cells (IFN-γ, IL-2, TNF-α)” value ([3]; three healthy donors and one patient donor)?
**A.** significantly increased across all donors and cytokines

**Q.** And the “cytokine production of prestimulated CAR-T cells” value (anti-BCMA CAR-T cells; [5])?
**A.** trend toward increased cytokine production

**Q.** What about the “cytolytic function of prestimulated CAR-T cells” value (anti-BCMA CAR-T cells; [5]) of the same compound?
**A.** preserved cytolytic function

**Q.** What about the “CD25 expression (MFI)” value (anti-BCMA CAR-T cells; [6]) of the same compound?
**A.** increasing CD25 expression

**Q.** What about the “PD-1 expression (MFI)” value (anti-BCMA CAR-T cells; [6]) of the same compound?
**A.** reduced PD-1 expression

**Q.** And the total cell count (anti-BCMA CAR-T cells; 7-day period, all donors)?
**A.** did not alter the total cell count

**Q.** What about the “CAR+ viability” value (anti-BCMA CAR-T cells; 7 days on BCMA beads, 3 healthy donors) of the same compound?
**A.** significantly increased CAR+ viability

**Q.** What about the “percentage positive for Lag3 expression” value (anti-BCMA CAR-T cells; CD4+ and CD8+ CAR+ populations, all donors) of the same compound?
**A.** increased

**Q.** And the “percentage of PD-1+ cells” value (anti-BCMA CAR-T cells; CD4+ population)?
**A.** decrease in the percentage of PD-1+ cells

**Q.** And the “surface expression of Tim3” value (anti-BCMA CAR-T cells; CD8+ population, three donors)?
**A.** increased the surface expression of Tim3 in the CD8+ population

**Q.** What about the “tumor growth and tumor burden” value (OPM-2-luciferase tumor; added to subtherapeutic CAR+ T cells from both donors, through day 60) of the same compound?
**A.** slower tumor growth and reduced tumor burden

**Q.** What about the “CAR T counts in the peripheral blood” value (OPM-2-luciferase tumor; concurrent lenalidomide, after 7 days, not at later time points) of the same compound?
**A.** increased CAR T counts in the peripheral blood

**Q.** What about the tumor burden (OPM-2-luciferase tumor; concurrent lenalidomide, donor 1, vs vehicle with anti-BCMA CAR T) of the same compound?
**A.** significant decrease in tumor burden

**Q.** And the survival (OPM-2-luciferase tumor; concurrent lenalidomide, donor 1 and donor 2)?
**A.** increased survival

**Q.** What about the “CD25 expression in CD4+ and CD8+ T cells” value (anti-CD19 CAR+ T cells [4]; 1600 nM lenalidomide, E:T 2.5:1, 120 hours) of the same compound?
**A.** higher levels of CD25 expression

**Q.** And the “surface expression of PD-1 in CD4+ or CD8+ T cells” value (anti-CD19 CAR+ T cells [4]; up to 1600 nM lenalidomide, 120 hours)?
**A.** No difference in surface expression of PD-1

**Q.** And the target cell viability (RPMI-8226 target cells; RPMI 8226 cells cultured with lenalidomide, no CAR T)?
**A.** did not directly influence target cell viability

**Q.** What about the killing activity (RPMI-8226 target cells; lenalidomide present during the cell killing assay) of the same compound?
**A.** did not substantially affect killing activity

**Q.** And the “cytolytic activity of the CAR+ T cells” value (RPMI-8226 target cells; preincubation with 5 μM lenalidomide during seven day bead incubation)?
**A.** increased cytolytic activity of the CAR+ T cells

**Q.** And the “percentage of IFN-γ+ and TNF-α+ intracellular staining” value (anti-BCMA CAR T cells; 0.1 or 1.0 μM lenalidomide, all stimulation levels, CD4+ and CD8+)?
**A.** increased the percentage of IFN-γ^+ and TNF-α^+ intracellular staining

**Q.** What about the “percentage of IL-2+ CAR+ T cells” value (anti-BCMA CAR T cells; 5-μg stimulation) of the same compound?
**A.** increasing the percentage of IL-2^+ CAR^+ T cells

**Q.** What about the “percentage of IL-2+ CAR+ T cells” value (anti-BCMA CAR T cells; 50-μg and 200-μg stimulation) of the same compound?
**A.** decreasing the percentage of IL-2^+ CAR^+ T cells

**Q.** And the “CAR T cytokine production” value (anti-BCMA CAR T cells; absence of stimulation)?
**A.** had no effect on CAR T cytokine production

**Q.** What about the “increase in IL-2 concentration compared with vehicle control” value (anti-BCMA CAR T cells; [7]) of the same compound?
**A.** 200%

**Q.** What about the “increase in TNF-α concentration compared with vehicle control” value (anti-BCMA CAR T cells; [7]) of the same compound?
**A.** 200%

**Q.** What about the “IFN-γ concentration compared with vehicle control” value (anti-BCMA CAR T cells; medium stimulation, 24 hours) of the same compound?
**A.** donor-dependent increases
